# Measurements published in the METLIN SMRT retention time set (Domingo-Almenara et al. 2019).
# Experiment: gradient 5% acetonitrile 3 min, to 50% in 2 min, to 85% in 15 min, held 3 min, 100 µL/min
# Settings: column: Zorbax Extend-C18 2.1 x 50 mm; eluents: water / acetonitrile, 0.1% formic acid
# How it was run: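 Over 3 months, pure standards in mixtures of ~100 molecules were run by HPLC coupled to a quadrupole time-of-flight mass spectrometer in positive and negative ionization mode. The column was a Zorbax Extend-C18 (2.1 × 50 mm, 1.8 μm) at 100 μL/min, eluted with water and acetonitrile each holding 0.1% formic acid, with 40 μL dead and 900 μL dwell volumes. Retention time was determined from adduct peaks chosen by software and checked manually.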
row,SMILES,RP-LC retention time [s]
1,CC1(C)CC(=O)c2cn(-c3ccccc3)c(=O)c(C(=O)N3CCc4ccccc43)c2C1,910
2,COc1ccc(C)cc1NC(=O)C1CCN(S(C)(=O)=O)c2cc(C)ccc2O1 (centres undefined),1030
3,CCOc1ccc(NC(=O)Nc2cc(C(C)C)c(O)cc2C)cc1,909
4,COc1ccc(CC(=O)N2CCC3(CC2)NC(=O)c2cccc(Cl)c2N3)cc1,761
5,Cc1cc(C)c(S(=O)(=O)N2CCCC2c2nc(-c3cccc(F)c3)no2)cc1C (centres undefined),1270
6,O=C(CC1=C2CCCCC2NC1=O)Nc1cccc(F)c1 (centres undefined),719
7,CCOC(=O)C1CCN(C(=O)Cc2csc(NC(=O)c3ccco3)n2)CC1,649
8,COc1ccc2c(c1)C1(CCN(S(=O)(=O)c3cccc(C)c3)C1)C(=O)N2 (centres undefined),840
9,Cc1cccc(CN2C[C@@H]3C(=O)N(Cc4ccc5c(c4)OCO5)C(=O)[C@@H]3C2)c1,734
10,CCn1cc(C(=O)NCc2ccccc2F)c(S(=O)(=O)N2CCSCC2)n1,901
11,O=C(NCCc1cccs1)C1CCN(Cc2cc3ccccc3n2Cc2ccc(Cl)cc2)CC1,846
12,O=C(c1cc(-c2ccco2)on1)N1CCCC1c1ccccc1F (centres undefined),777
13,CCc1cccc(NS(=O)(=O)c2cc(-c3[nH]ncc3C(=O)N3CCCCC3)oc2C)c1,819
14,Cc1ccc2c(Nc3ccc(CC(=O)O)cc3)c(C(=O)N3CCCCCC3)cnc2n1,595
15,CN(C)c1cc(C(=O)Nc2ccccc2)c2ccccc2n1,651
16,CCn1nccc1-c1cccc(-c2noc(-c3ccc(OC)cc3C)n2)c1,1300
17,Cc1ccc(C)c(N2CCN(S(=O)(=O)c3cc(-c4nnc(C5CC5)o4)co3)CC2)c1,1140
18,COC(=O)c1cccc(C(=O)N2CCN(c3cc(Cl)ccc3C)CC2)n1,946
19,CCOC(=O)c1c(S(=O)(=O)N2CCC(C(=O)NCc3cccc(C)c3)CC2)c(C)n(C)c1C,841
20,CC(Cc1ccco1)NC(=O)c1ccc2ccnc(N3CCN(c4ccc(F)cc4)CC3)c2c1 (centres undefined),829
21,COCCN(Cc1ccc(C(C)C)cc1)Cc1cc(=O)n2cccc(C)c2n1,728
22,COc1cc(OC)cc(C(=O)N2CCCC2COc2ccc(C(=O)N3CCCC3)cc2)c1 (centres undefined),807
23,O=C(Cc1ccc(Br)cc1)N1CCN(c2cc(-c3ccc(Cl)cc3)[nH]n2)CC1,953

row,SMILES,RP-LC retention time [s]
1,COc1ccc(Cl)cc1NC(=O)NC(C)C(=O)N1CCc2ccccc21 (centres undefined),1000
2,O=C(C1=CN(c2ccc(F)cc2)c2cc(F)ccc2S1(=O)=O)N1CCOCC1,769
3,O=C(Cc1nnc2cc(-c3nc(C4CC4)no3)ccn12)N1CCOCC1,642
4,CCCn1c(C)cnc1C1CN(C(=O)C(C)C)C1,553
5,Cc1cc(N2CCCC2)nc(N2CCN(C(=O)CC3CCCC3)CC2)n1,694
6,CC(C)(C)c1ccc(C(=O)Nc2cc(-c3ccccn3)no2)cc1,1020
7,CCc1nc2c(c(=O)n1CC(=O)Nc1ccc(C)cc1)CN(Cc1ccccc1)CC2,672
8,CCCN(C(=O)CC)c1nc(-c2ccc(C)cc2)cs1,1330
9,CCOc1cc(=O)c(C(=O)N2CCN(c3ncccn3)CC2)nn1-c1ccc(C)cc1,751
10,Cc1cccc(C)c1NC(=O)CN1C(=O)NC(c2ccc(Cl)cc2)C2=C1COC2=O (centres undefined),747
11,CN(CC1CCOC1)C(=O)Nc1cccc(C(F)(F)F)c1 (centres undefined),784
12,COc1cn2c(cc1=O)C(=O)N(CCNC(=O)c1c(F)cccc1Cl)CC2,660
13,COc1ccc(Cl)cc1S(=O)(=O)NCc1c(-c2ccccc2)nc2sc(C)nn12,912
14,CCNC(=O)c1ccc(-c2csc(C3CC3)n2)cc1,796
15,CC1CCCN(c2nn(CC(=O)Nc3ccccc3Cl)c(=O)c3ccccc23)C1 (centres undefined),1180
16,Cc1ccccc1CNC(=O)c1cn2ccncc2n1,692
17,COc1ccc(CCNC(=O)NCC2CCN(Cc3ccsc3)CC2)cc1,565
18,CC(C)c1nnc(-c2cccnc2N2CCN(C(=O)c3ccco3)CC2)o1,735
19,COc1ccc(C2CC(=O)N(c3ccccc3)C(=O)C2)cc1OC,860
20,c1cc(CN2CCCCC2c2nncn2CC2CC2)co1 (centres undefined),561
21,Fc1ccc(OCc2nc(C3CCNC3)no2)cc1 (centres undefined),626
22,CN(C)C(=O)c1cccc(C(=O)N(C)C)n1,541
23,COc1cc2c(cc1OC)CN(C(=O)c1cc(-c3ccc(F)cc3)c[nH]1)CC2,847

row,SMILES,RP-LC retention time [s]
1,CC(C)CNC(=O)N1CCN(c2nc3ccccc3n(Cc3ccccc3)c2=O)CC1,986
2,Cc1ccc(CNC(=O)C2CCCN(c3nc4ncccc4n4cccc34)C2)cc1 (centres undefined),640
3,C=CCN(CC=C)c1nc(-c2ccc(Cl)cc2Cl)nc2ccccc12,933
4,Cn1ncc2c(N3CCCC3)nc(C(=O)NCc3cccnc3)nc21,562
5,Cn1ccc2c(cc(C(=O)NCc3cccc(Br)c3)n2C)c1=O,733
6,CN(Cc1ccco1)C(=O)CC1CCN(C(=O)c2cc3cc(Cl)ccc3[nH]2)CC1,897
7,c1ccc(-n2nnnc2-c2cccc3ccccc23)cc1,1010
8,Cc1cc(C(=O)Nc2nnc(-c3cccs3)o2)c(C)o1,706
9,COc1ccc(Cl)c2c(=O)c3c([nH]c12)CCN(CC(=O)Nc1ccc2c(c1)OCCO2)C3,610
10,COc1ccc(CNC(=O)C2(C)Cc3ccccc3C(=O)N2Cc2ccco2)cc1 (centres undefined),860
11,CN1C(=O)c2cc(S(=O)(=O)Nc3ccc(Cl)cc3F)ccc2Oc2cccnc21,962
12,CN1C(=O)c2cc(C(=O)NCc3ccc(F)cc3)nn2CC1(C)C(=O)NCc1ccc(F)cc1 (centres undefined),760
13,COc1ccc(-c2cn3c(CC(=O)Nc4ccc(Cl)c(C(F)(F)F)c4)csc3n2)cc1OC,882
14,Cc1cc(=O)n(CC(=O)Nc2ccc(F)c(F)c2)c(N2CCOCC2)n1,687
15,O=C(NCC(O)c1cccc2ccccc12)NC1CCCCC1 (centres undefined),781
16,Cc1ccc(Sc2nccnc2N2CCCC(C(=O)N3CCN(c4ccccc4)CC3)C2)cc1 (centres undefined),1220
17,Cc1ccc2c(c1)N(c1ccc(N(C)C)cc1)C=C(C(=O)N1CCCC1)S2(=O)=O,874
18,O=C(c1cc(-c2cccs2)[nH]n1)N1CCN(c2ccccn2)CC1,596
19,CCN(Cc1ccccc1)C(=O)c1cn2cc(Cl)ccc2n1,860
20,Cc1nn(-c2nc(-c3ccc(Cl)cc3)cs2)c(C)c1CC(=O)N1CCN(c2ccccc2)CC1,1290
21,COc1ccc(NC(=O)c2c(O)c3cccnc3n(-c3ccc(F)cc3)c2=O)cc1,1250
22,Cc1ccn2cc(-c3ccc(NS(=O)(=O)c4ccccc4F)cc3)nc2n1,636
23,O=C(NCCc1csc2nc(-c3cccs3)nn12)c1c(F)cccc1Cl,792

row,SMILES,RP-LC retention time [s]
1,CCc1noc(-c2cnc3nc(C)ccc3c2Nc2ccc3c(c2)OCCO3)n1,731
2,COc1ccc(-c2nnc(-c3ccc(C)c(S(=O)(=O)NC(C)C(=O)O)c3)o2)cc1OC (centres undefined),748
3,Cc1nn(C)c(=O)c2cc(S(=O)(=O)NCc3ccc(F)cc3)cn12,766
4,CC1=C(C(=O)OC(C)C)C(c2cc3c(cc2Br)OCO3)NC(=O)N1 (centres undefined),748
5,Cc1nnc(-c2cccnc2N2CCN(C(=O)CC3CCCC3)CC2)o1,728
6,CSCCC(NC(=O)COc1cccc2ccccc12)C(=O)O (centres undefined),769
7,Cc1ccc(-c2noc(C(=O)N3CCOCC3)n2)cc1S(=O)(=O)N1CCN(c2ncccn2)CC1,906
8,Cc1ccc(N(C)S(=O)(=O)c2cc(-c3[nH]ncc3C(=O)N(C)C)oc2C)cc1,729
9,CN1C(=O)N(C)C2(CCN(C(=O)c3ccco3)CC2)C1=O,597
10,COc1ccccc1NC(=O)N1CCC2(CC1)NC(=O)c1ccc(F)cc1N2C,745
11,Cc1ccc2oc(N3CCN(C(=O)c4cccc(-c5noc(C)n5)c4)CC3)nc2n1,623
12,O=C(NCC1CCCO1)c1cccn1Cc1noc(-c2ccc(Cl)cc2)n1 (centres undefined),943
13,Cc1nc(-c2cn(C(C)C)c3ncccc23)sc1C(=O)N(C)Cc1ccccc1,1050
14,CC(C)C(=O)Nc1ccc(C(=O)Nc2nc(-c3ccccc3)cs2)cc1,949
15,CNC(=O)C1CCN(Cc2cc3ccccc3n2Cc2ccc(Cl)cc2)CC1,708
16,COc1ccc2c(c1)c(CN1C[C@@H](CO)[C@H](c3nc(C)no3)C1)cn2C,555
17,Cc1ccc(-n2c(N3CCC(C(=O)NC4CC4)CC3)nc3ccsc3c2=O)cc1,719
18,COc1ccc(C)cc1NC(=O)N1CCc2cn(C)c3cccc(c23)C1,822
19,CC(C)C(=O)Nc1nc(-c2ccc3c(c2)N(C)C(=O)C(C)O3)cs1 (centres undefined),822
20,COC(=O)c1c(NCc2c(C)noc2C)c2cccc(Cl)c2[nH]c1=O,706
